According to publication PMC2132602 (The Journal of Cell Biology, 1998):

Biological target: T1, RPK (Ripped Pocket) (Drosophila melanogaster, UniProt Q7KTQ9)
T1 sequence (Q7KTQ9 1-562): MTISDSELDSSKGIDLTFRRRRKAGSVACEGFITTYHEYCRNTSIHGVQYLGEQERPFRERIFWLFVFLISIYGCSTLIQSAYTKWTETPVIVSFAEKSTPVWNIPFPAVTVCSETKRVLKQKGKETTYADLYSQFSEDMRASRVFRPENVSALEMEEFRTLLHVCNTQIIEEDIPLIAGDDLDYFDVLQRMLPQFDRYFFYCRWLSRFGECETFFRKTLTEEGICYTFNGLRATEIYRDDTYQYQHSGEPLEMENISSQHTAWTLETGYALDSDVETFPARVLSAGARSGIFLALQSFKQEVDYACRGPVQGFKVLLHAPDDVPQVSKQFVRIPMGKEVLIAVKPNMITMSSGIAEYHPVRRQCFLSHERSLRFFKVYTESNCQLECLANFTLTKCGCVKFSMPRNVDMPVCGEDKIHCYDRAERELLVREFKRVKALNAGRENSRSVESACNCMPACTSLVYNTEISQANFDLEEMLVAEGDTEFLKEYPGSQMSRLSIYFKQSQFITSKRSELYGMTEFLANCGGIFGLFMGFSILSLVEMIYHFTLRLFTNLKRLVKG
Assay: two-electrode voltage clamp, Xenopus oocytes, dose-response of Na+ current block
Assay type: cell-based

Question: Which IC50 does the source give for `N=C(N)NC(=O)c1nc(Cl)c(N)nc1N` [amiloride] here?
Answer: The IC50 was 9 ± 0.1 µM.
